87 molecules from a melting point compilation (Tetko et al.; mined from patent text by program, amines drawn as free bases though some values may be those of a salt) can be followed below.

Each structure is given as a SMILES string. Residues, ends and D or L forms follow the SMILES beside them. *: point of attachment. Cbz = O=C(OCc1ccccc1)* A value given as a limit tells only on which side of the number the result lay.

`COC(=O)c1ccc(Sc2ccc(O)cc2)cc1` displayed a melting point of 184 to 186 °C.

As for `O=P(Oc1cccc(OP(=O)(c2ccccc2)c2ccccc2)c1)(c1ccccc1)c1ccccc1`, the melting point came out at 130 °C. To `O=S(=O)(CCCl)c1ccc(O)cc1` belongs 72.5 to 73.5 °C. To `Oc1ncn(-c2ccccc2)n1` belongs 281 to 282 °C. The molecule `CCc1c(OC)cc(C2CN(C)CCC2=O)cc1OC` (configuration not stated) registered a melting point of 84 to 85 °C. In turn, `COc1cc2c(c(Cl)c1Cl)C(=O)C(C)(C(C)C)C2` (configuration not stated) registered a melting point of 143 °C.

Consider `COC1CN(C(=O)c2cnn(C)c2C(=O)Nc2ccn3nc(-c4cccc(F)c4)nc3c2)C1`, for which the melting point was in the range of 255 to 257 °C. Take `Cc1ccn2cc(CS)nc2c1`: the melting point is 164 to 168 °C. To `CC1(C)OC(=S)Nc2ccc(-c3cc(F)cc(Cl)c3)cc21` belongs 204 to 205 °C. `C=CCn1c(=O)n(-c2ccc3c(c2)OCO3)c2ncc([N+](=O)[O-])cc21` came in with a melting point of 152 to 153 °C. In turn, `N#CC(O)CC12CCC(c3ccccc31)c1ccccc12` (configuration not stated) yielded a melting point of 139 to 141 °C. To `CCc1cccc(C)c1CNc1cc(C(=O)N(C)C)cc2[nH]c(C)nc12` belongs 228 to 230 °C; to `COCn1nc(-c2cc(C(C)(C)C)c(O)c(C(C)(C)C)c2)c2cccnc21`, 113 to 115 °C; to `CC(Sc1nnnn1-c1ccccc1)C(=C(C#N)C#N)c1ccccc1` (configuration not stated), 145 to 146 °C. To `CCN(CC)c1ccc(C=CC2=NC(C#N)=C(C#N)N=CC2)cc1` belongs greater than 300 °C; to `CC(=O)N1CCN(c2ccc(Nc3nccc(-c4sc(NCCc5ccccc5)nc4C)n3)cc2)CC1`, 212 to 213 °C; to `Fc1ccccc1-c1nc2ncncc2[nH]1`, 267 to 271 °C. `Cc1c(NC(=O)C(CSC(=O)c2ccccc2)Cc2ccccc2)cccc1C(=O)O` (configuration not stated) gave a melting point of 204 to 205 °C. `CC(Nc1c(Nc2ccc(S(N)(=O)=O)cc2)c(=O)c1=O)C(C)(C)C` (configuration not stated): the melting point fell in the range of 233 to 235 °C. Molecule `CCNC(=O)Oc1cccc(NC(=O)C=C(C)OC)c1` displayed a melting point of 183 °C. For the molecule `Cc1c(N2CC3(CC3)[C@](C)(N)C2)ccc2c(=O)c(C(=O)O)cn(C3CC3)c12`, the melting point lay in the range of 227 to 230 °C. To `CC(C)n1cc2c3c(cccc31)C1CC(C(=O)NC3CCCCC3)CN(C)C1C2` (configuration not stated) belongs greater than 250 °C; to `CCN1C(=O)CCCc2cc(Nc3ncc(Cl)c(N[C@H]4[C@@H](C(N)=O)[C@@H]5C=C[C@H]4C5)n3)c(OC)cc21`, 145 to 153 °C.

As for `COC(=O)[C@H](Cc1ccccc1)NC(=O)[C@H](CC(=O)O)NC(=O)OCc1ccccc1` (Cbz-Asp-Phe-OMe), the melting point is 113 to 116 °C. To `CC(Cc1ccccc1)(C(=O)NO)S(=O)(=O)c1cccs1` (configuration not stated) belongs 116 to 117 °C; to `COc1ccc(-c2c(CO)[nH]c3cc(OC)c(OC)cc23)cc1`, 169 to 170 °C. On to `COCOCc1ccccc1C1Cn2cc(C(=O)NCc3ccc(Cl)cc3)c(=O)c3cc(CN4CCOCC4)cc(c32)O1` (configuration not stated), for which the melting point fell in the range of 202 to 204 °C. For the molecule `Oc1ccc(-c2ccc(C=C(Br)Br)s2)cc1`, the melting point fell in the range of 99 to 101 °C. Regarding `c1cncc(-c2cccc(-n3cnc4cc(-c5ccoc5)cnc43)c2)c1`, the melting point fell in the range of 191 to 192 °C. To `COC(=O)C1=C(S(=O)(=O)NC(=O)Nc2nc(C)cc(OC)n2)CCC1` belongs 161 to 163 °C; to `CN1C2CCC1CC(O)(c1ccccc1)C2` (configuration not stated), 157 to 159 °C. For `O=S(=O)(c1ccc(I)cc1)N1CCC(Br)(Br)C(c2ccc(Cl)c(C(F)(F)F)c2)=N1` the value was 148 to 150 °C. To `COC(=O)c1cc(Cl)c(N)c2c1OCC2` belongs 135 °C. Molecule `O=C(O)COc1cccc(C(=O)O)c1OCC(=O)O` displayed a melting point of 195 to 197 °C.

With `O=C(CC(NC(=O)COc1ccccc1)c1ccccc1)Nc1n[nH]c(=S)s1` (configuration not stated), the melting point was in the range of 225 to 226 °C. `CN(Sc1nc2ccccc2s1)C(=O)Oc1cccc2c1OC(C)(C)C2` came in with a melting point of 92 to 93 °C. To `Sc1nnc(-c2cc3c(Oc4ccc(Cl)cc4)cncc3s2)o1` belongs 236 to 240 °C; to `Cc1ccc2c(c1)CCC1=C2CCC(=O)N1`, 204 to 205 °C.

For the molecule `Cc1ccccc1-c1ccc(C(=O)N2Cc3ccc(C(=O)NCc4cccnc4)n3Cc3ccccc32)cc1`, the melting point lay in the range of 176 to 177 °C.

For `C=C1CC(c2ccc(Br)s2)N(C)C1=O` (configuration not stated), the melting point lay in the range of 177 to 180 °C. To `CC(C)N(C(N)=O)c1ccc2c(c1)OCO2` belongs 116 to 119 °C. For `CCOC(=O)c1ccc(-c2ccc(N(c3ccc(-c4ccccc4)cc3)c3ccc(-c4ccc(C(=O)OCC)cc4)cc3)cc2)cc1` the value was 200 to 201 °C; for `CCN(CC)C(=O)c1nc(-c2c(Cl)cc(C(F)(F)F)cc2Cl)[nH]c1C#N`, 195 to 197 °C; for `CC(CCN)P(C)(=O)O` (configuration not stated), 68 to 75 °C. For `CC(=O)N1C(=O)C=CC1=O` the value was 58 °C. On to `Clc1ccc(-c2nc(CCCCCCc3nnn[nH]3)oc2-c2ccc(Cl)cc2)cc1`, for which the melting point amounted to 148 °C.

`Clc1ccc(C2c3ccc(Cl)cc3-c3ncncc32)cc1` (configuration not stated) registered a melting point of 158 to 163 °C. To `CCOC(=O)c1cn(Cc2ccccc2)nc1OCc1ccc(OCc2nc(-c3ccco3)oc2C)c(OCC)c1` belongs 121 to 122 °C. To `CNC(=O)c1ccnc(NC(=O)N2CCC3(CCc4ccc(F)cc4O3)CC2)c1` belongs 177 to 179 °C; to `COc1ccc(C(=O)Nc2ccc3ccc(OCCN(C)C)nc3n2)cc1`, 77 to 80 °C. For `CC(C)OC(=O)CCC1CCCCC1(c1ccc(O)c(C(C)(C)C)c1)c1ccc(O)c(C(C)(C)C)c1` (configuration not stated) the value was 172 °C. Consider `CCCCCc1ccc(-c2ncc(O)cn2)c(F)c1F`, for which the melting point is 104 to 105 °C. For `CCCC(=O)Nc1nc2ccccc2n2c(CC)nnc12` the value was 185 to 187 °C. To `CN1Cc2nc3ccccc3c(=O)n2-c2ccccc2C1=O` belongs 204 to 206 °C; to `COc1ccc(-c2ccc(OC3SCC(OC(C)=O)C(OC(C)=O)C3OC(C)=O)cn2)cn1` (configuration not stated), 74 °C; to `Cc1cc(Cc2ccc(NC(=O)N(C)C)cn2)n(C)c1C(=O)c1ccc(Cl)cc1`, 227 to 230 °C.

In turn, `CC(C)c1nccc2c(CNC(=O)C(Cl)Cl)cccc12` returned a melting point of 151 °C. Regarding `COC1(OC)C(NC(=O)c2ccccc2O)=CC(=O)C2OC21` (configuration not stated), the melting point is 147 to 149 °C.

In the case of `NC(=O)NCc1ccc(CNC(=O)[C@@H](CCCNC(N)=N[N+](=O)[O-])NC(=O)OCc2ccc3ccccc3c2)cc1`, the melting point was 155 to 160 °C. In turn, `COc1cc(NC(=O)CC23CC4CC(CC(C4)C2)C3)c(C)c([N+](=O)[O-])c1` displayed a melting point of 141 to 142 °C.

For the molecule `CN1CCN(CC/C=C/c2ccc3c(Nc4ccc(Sc5nccn5C)c(Cl)c4)c(C#N)cnc3c2)CC1`, the melting point fell in the range of 225 to 235 °C.

`CS(=O)(=O)N1Cc2nc3c(N)nc4c(c3n2C(CCCNC(=O)N2CCOCC2)C1)CCCC4` (configuration not stated): the melting point was in the range of 149 to 160 °C. For `Cc1cc(-c2ccc(C(F)(F)F)cn2)nc(-c2cccc(-c3cccc(S(N)(=O)=O)c3)n2)n1` the value was 246 to 252 °C; for `Cc1nc2c3c(ccn2c1C)[C@@H](OCCS(C)=O)[C@H](O)[C@@H](c1ccccc1)N3` (some centres not stated), 105 to 106 °C. To `C=CCNc1nc(NC(C)C)nc2ccc([N+](=O)[O-])cc12` belongs 150 to 151 °C; to `CCOC(=O)C(C#N)=Cc1c(Cl)n(C)c2ccccc12`, 131 to 132 °C; to `NC(=O)c1cc(OCCCCNCc2ccccc2)ccc1O`, 78 to 81 °C. `CCOc1c(-c2ccc(S(C)(=O)=O)cc2)cnn(-c2ccc(F)c(F)c2)c1=O` showed a melting point of 121 to 123 °C. `COc1cc(OC)c2c(=O)[nH]c(-c3ccc(OC)c(N4CCN(C(C)C)CC4)n3)nc2c1` had a melting point of 208 to 210 °C.

In the case of `CC(C)(C)c1csc(-c2cc3cc(CO)ccc3o2)n1`, the melting point was in the range of 143 to 144 °C.

Regarding `CC(C)Oc1ccc(C2Cc3ccccc3C(=O)N2C)cc1` (configuration not stated), the melting point fell in the range of 115 to 116 °C.

Molecule `NS(=O)(=O)c1ccc(-c2cc(-c3nc(-c4ccc(Cl)cc4)cc(C(F)(F)F)n3)ccn2)s1` displayed a melting point of 290 °C. Take `Cc1nnc(-c2ccc3occ(-c4ccc(C(=O)N5CCOCC5)c(F)c4)c3c2)o1`: the melting point is 167 to 168 °C. For `CCOC(=O)Cc1ccccc1Oc1ccc(C)cc1` the value was 75 °C; for `O=C(Nc1cccc(Oc2cccc(C(=O)O)c2)c1)NC12CC3CC(CC(C3)C1)C2`, 152 to 154 °C; for `CC(C)[C@H](C[C@H](O)[C@H](C)NC(=O)OC(C)(C)C)C(=O)NCCN`, 55 to 62 °C. `COc1cc(COc2nn(-c3ccccc3)cc2/C=C/c2cnco2)ccc1OCc1nc(-c2ccco2)oc1C`: the melting point was 137 to 138 °C.

Consider `CCOC(=O)C1=NNC(C)=C(C(=O)OC)C1c1cccc([N+](=O)[O-])c1` (configuration not stated), for which the melting point was 174 °C. As for `Nc1nc(N)c(-c2ccc(Cl)cc2Cl)c(CF)n1`, the melting point was in the range of 210 to 211 °C. On to `O=C1CCCC(c2ccccc2)N1c1ccccc1` (configuration not stated), for which the melting point is 123 to 125 °C. To `CCOc1nn(-c2ccc(C(F)(F)F)cc2)cc1CCCOc1cc(CCC(=O)O)n(-c2ccccc2)n1` belongs 126 to 127 °C; to `O=C(CCCCCCNC(=O)c1cc2cccc3c2n1CCC3)NO`, 160 to 161 °C. Molecule `COC(=O)CCc1cc2cc(Cl)ccc2n1S(=O)(=O)c1cc(OC)ccc1OC` displayed a melting point of 120 to 124 °C. To `COC(=O)C=C(OC)c1ccccc1OCc1csc(-c2ccc(F)cc2)n1` belongs 105 to 108 °C; to `CCCOc1ccc(F)c2c(=O)c(-c3ccc(OC)cc3)c(CN3CCN(c4ccccn4)CC3)[nH]c12`, 211 to 212 °C; to `CCOCc1nc2c(N)nc3ccccc3c2n1CC1(NC(=O)NC(C)C)CCCCC1`, 135 to 160 °C. Turning to `COc1ccc(Cc2cccc(C(Cl)(C3=NCCCN3)c3ccccc3)c2)cc1` (configuration not stated), the melting point was determined as 125 °C.
